Legend:
[1] = Cytotoxicity against human MRC5 cells assessed as reduction in cell viability after 24 hrs by MTT assay; type: toxicity, cell-based
Plasmodium berghei = assay: Antiplasmodial activity against plasmodium berghei N strain infected in ICR(CD1) mouse assessed as inhibition of parasitemia at 30 mg/kg, ip administered for 3 days relative to control; type: functional; conditions: 72 h, time 3 day
Plasmodium falciparum [2] = assay: Antiplasmodial activity against Plasmodium falciparum FCR3 assessed as reduction in parasite growth incubated for 72 hr by LDH assay; type: functional, organism-based; conditions: FCR3, 72 h
Plasmodium falciparum [3] = assay: Antiplasmodial activity against Plasmodium falciparum K1 assessed as reduction in parasite growth incubated for 72 hr by LDH assay; type: functional, organism-based; conditions: K1, 72 h
[4] = Selectivity index, ratio of CC50 for human MRC5 cells to IC50 for plasmodium falciparum K1; type: toxicity; conditions: read-out: Ratio CC50/IC50
[5] = Selectivity index, ratio of CC50 for human MRC5 cells to IC50 for plasmodium falciparum FCR3; type: toxicity; conditions: read-out: Ratio CC50/IC50
[6] = Inhibition of HDAC in Plasmodium falciparum infected in human erythrocytes incubated for 2 hr in presence of sodium [14C]acetate by radiometry assay; type: cell-based; conditions: Erythrocyte

SMILES: CC1(C)NC(=O)[C@H](CCCCCC(=O)[C@@H](O)CO)NC(=O)[C@H]2CCCN2C(=O)[C@H](Cc2ccccc2)NC1=O
- CC50 at 24 h [1]: 14700 nM
- inhibition in vivo at 30 mg/kg (Plasmodium berghei): 41%
- IC50 (Plasmodium falciparum [2]): 890 nM
- IC50 (Plasmodium falciparum [3]): 830 nM
- selectivity ratio [4]: 18.4
- selectivity ratio [5]: 16.3

SMILES: CC1(C)NC(=O)[C@H](CCCCC[C@@H](O)[C@@H](O)CO)NC(=O)[C@H]2CCCN2C(=O)[C@H](Cc2ccccc2)NC1=O
- CC50 at 24 h [1]: 6800 nM
- inhibition in vivo at 30 mg/kg (Plasmodium berghei): 18.3%
- IC50 (Plasmodium falciparum [2]): 17100 nM
- IC50 (Plasmodium falciparum [3]): 12500 nM
- selectivity ratio [4]: 0.5
- selectivity ratio [5]: 0.4

SMILES: C[C@@H]1CC[C@H]2[C@@H](C)C(=O)O[C@@H]3O[C@@]4(C)CC[C@@H]1[C@]32OO4 [ARTEMISININ]
- CC50 at 24 h [1]: > 25000 nM
- inhibition in vivo at 30 mg/kg (Plasmodium berghei): 99.7%
- IC50 (Plasmodium falciparum [2]): 26 nM
- IC50 (Plasmodium falciparum [3]): 22 nM
- selectivity ratio [4]: > 1140
- selectivity ratio [5]: > 961

SMILES: CCC(=O)CCCCC[C@@H]1NC(=O)[C@H]2CCCCN2C(=O)[C@H]([C@@H](C)CC)NC(=O)[C@H](Cc2cn(OC)c3ccccc23)NC1=O [APICIDIN]
- IC50 [6]: 0.7 nM

From ChEMBL document CHEMBL5126655, “Koshidacins A and B, Antiplasmodial Cyclic Tetrapeptides from the Okinawan Fungus Pochonia boninensis FKR-0564” (J Nat Prod, 2022)
